# Measurements reported in patent US20190010158A1, “ANTITUMOR EFFECT POTENTIATOR COMPRISING PYRROLOPYRIMIDINE COMPOUND” (TAIHO PHARMACEUTICAL CO., LTD, priority 2015, published 2019).
# Structures can show the parent of a compound that is named as a salt.
# Key:
# [1] = test system: tumor cell line shown in Table 38; test: Example 9: combined use with BCL-2 inhibitor, cell growth inhibition test (IC50 ratio, CI); assay type: cell-based; conditions: MOLT-4; for CI: at ED50
# U266B1 = test: Example 1: combined use with proteasome inhibitor, cell growth inhibition test (IC50 ratio, CI), U266B1; assay type: cell-based, human; conditions: for CI: at ED50
# [2] = test system: Human multiple myeloma (MM) KMS-26 cell lines; test: Example 16: tumor growth inhibition in mice, combinational treatment with bortezomib; assay type: in vivo; conditions: KMS-26 in mice; 1 mg/kg/day, days 1, 4, 8, 11; day 15
# Source text: The test ended on day 15.
# A necessary amount of the test compound was weighed to prepare a solution to administer to the mice.
# (§1) RTVn=TVn/TV1 (equation D)
# (§2) BWCn (%)=(BWn−BW1)/BW1×100 (equation F)
# [3] = test system: tumor cell lines shown in Table 58; test: Example 22: combined use with IAP antagonist, cell growth inhibition test (IC50 ratio, CI); assay type: cell-based; conditions: HL-60; for CI: at ED50
# [4] = test system: tumor cell line shown in Table 36; test: Example 8: combined use with BTK inhibitor, cell growth inhibition test (IC50 ratio, CI); assay type: cell-based; conditions: MV-4-11; for CI: at ED50
# HL-60 = test: Example 1: combined use with proteasome inhibitor, cell growth inhibition test (IC50 ratio, CI), HL-60; assay type: cell-based; conditions: for CI: at ED50
# [5] = test system: tumor cell line shown in Table 34; test: Example 7: combined use with Exportin-1 inhibitor, cell growth inhibition test (IC50 ratio, CI); assay type: cell-based; conditions: HCT116; for CI: at ED50
# [6] = test system: tumor cell line shown in Table 28; test: Example 4: combined use with PARP inhibitor, cell growth inhibition test (IC50 ratio, CI); assay type: cell-based; conditions: A549; for CI: at ED50
# [7] = test system: tumor cell lines shown in Table 40; test: Example 10: combined use with HDAC inhibitor, cell growth inhibition test (IC50 ratio, CI); assay type: cell-based; conditions: U266B1; for CI: at ED50; for Comprehensive Evaluation: combined use with Reference Example Compound 55
# [8] = target: T1, NAE (heterodimer of APPBP1 and UBA3) (Homo sapiens, UniProt Q8TBC4); test: Nedd8 conjugation inhibitory activity (AlphaScreen); assay type: biochemical; conditions: purified NAE, GST-UBC12, ATP, Biotin-Nedd8, reaction 90 minutes
# T1 construct: amino acids 1 to 463 of human UBA3 protein; made in house; host or cells: Sf9 insect cells (baculovirus co-infection) for NAE; E. coli BL21 (DE3) for GST-UBC12
# T1 sequence (Q8TBC4 1-463): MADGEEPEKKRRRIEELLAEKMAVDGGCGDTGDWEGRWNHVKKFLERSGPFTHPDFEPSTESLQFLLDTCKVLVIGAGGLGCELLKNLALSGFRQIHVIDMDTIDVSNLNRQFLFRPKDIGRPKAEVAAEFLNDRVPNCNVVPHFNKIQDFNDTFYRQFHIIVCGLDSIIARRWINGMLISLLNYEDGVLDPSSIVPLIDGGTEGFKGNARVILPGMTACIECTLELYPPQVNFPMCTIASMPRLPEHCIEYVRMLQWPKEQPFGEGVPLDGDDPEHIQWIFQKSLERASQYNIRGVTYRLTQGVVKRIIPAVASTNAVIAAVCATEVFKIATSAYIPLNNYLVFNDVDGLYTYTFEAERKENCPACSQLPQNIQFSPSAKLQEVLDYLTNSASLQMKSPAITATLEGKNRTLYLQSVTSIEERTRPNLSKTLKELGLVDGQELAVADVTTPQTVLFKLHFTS
# T1 sequence (Q13564 1-534 partner): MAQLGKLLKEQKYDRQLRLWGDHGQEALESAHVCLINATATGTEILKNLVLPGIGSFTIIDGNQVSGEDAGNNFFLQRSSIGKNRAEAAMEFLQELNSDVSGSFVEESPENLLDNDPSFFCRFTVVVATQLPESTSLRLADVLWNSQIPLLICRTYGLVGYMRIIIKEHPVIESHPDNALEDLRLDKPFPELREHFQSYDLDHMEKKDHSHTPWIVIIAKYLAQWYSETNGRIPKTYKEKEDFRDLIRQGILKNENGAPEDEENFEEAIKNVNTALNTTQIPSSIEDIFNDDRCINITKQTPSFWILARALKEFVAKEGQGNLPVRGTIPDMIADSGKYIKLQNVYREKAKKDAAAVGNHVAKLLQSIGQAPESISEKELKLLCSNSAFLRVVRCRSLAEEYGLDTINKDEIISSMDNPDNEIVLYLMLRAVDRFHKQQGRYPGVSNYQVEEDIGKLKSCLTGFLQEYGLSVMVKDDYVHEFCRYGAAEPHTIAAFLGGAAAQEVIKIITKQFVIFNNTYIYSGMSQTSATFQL
# [9] = test system: human acute T lymphoblastic leukemia CCRF-CEM cell lines; test: Cell growth inhibition 1 (CellTiter-Glo); assay type: cell-based; conditions: culture with test compound 72 hours
# [10] = test system: human colon cancer HCT116 cell line; test: Cell growth inhibition 2, HCT116; assay type: cell-based; conditions: HCT-116
# [11] = test system: human pancreatic cancer Capan-1 cell line; test: Cell growth inhibition 2, Capan-1; assay type: cell-based
# [12] = test system: human lung cancer A-427 cell line; test: Cell growth inhibition 2, A-427; assay type: cell-based
# [13] = test system: human breast cancer MDA-MB-453 cell line; test: Cell growth inhibition 2, MDA-MB-453; assay type: cell-based
# [14] = test system: human prostate cancer LNCAP.FGC cell line; test: Cell growth inhibition 2, LNCaP.FGC; assay type: cell-based
# [15] = test system: human osteo- and soft tissue sarcoma SJCRH30 cell line; test: Cell growth inhibition 2, SJCRH30; assay type: cell-based
# [16] = test system: human multiple myeloma U266B1 cell line; test: Cell growth inhibition 2, U266B1; assay type: cell-based
# [17] = test system: human skin cancer A-431 cell line; test: Cell growth inhibition 2, A-431; assay type: cell-based
# [18] = test system: human acute leukemia MV-4-11 cell line; test: Cell growth inhibition 2, MV-4-11; assay type: cell-based; conditions: MV4-11
# [19] = test system: human diffuse large B-cell lymphoma DB cell line; test: Cell growth inhibition 2, DB; assay type: cell-based
# [20] = test system: human clear cell sarcoma SU-CCS-1 cell lines; test: Example 18: tumor growth inhibition in mice, combinational treatment with doxorubicin; assay type: in vivo; conditions: day 22
# Source text: as §1, §2
# The test ended on day 22.
# The control group was untreated.
# [21] = IC50 of Reference Example Compound 55 : IC50 of other compound = 1:value
# [22] = combined use with Reference Example Compound 55
# [23] = Reference Example Compound 55:other compound 1:0.07
# [24] = Reference Example Compound 55:other compound 1:10
# [25] = Reference Example Compound 55:other compound 1:30
# [26] = SU-CCS-1 in mice, intravenously 8 mg/kg/day, day 1
smiles,measurement,setting,value
CC1(C)CCC(CN2CCN(c3ccc(C(=O)NS(=O)(=O)c4ccc(NCC5CCOCC5)c([N+](=O)[O-])c4)c(Oc4cnc5[nH]ccc5c4)c3)CC2)=C(c2ccc(Cl)cc2)C1 [ABT-199],IC50 Ratio,[1]; [21],119
same,CI,[1]; Reference Example Compound 55:other compound 1:60,0.37
same,CI,[1]; Reference Example Compound 55:other compound 1:180,0.40
same,Comprehensive Evaluation,[1]; [22],Synergism (0.3-0.7)
"CC(C)C[C@H](NC(=O)[C@H](Cc1ccccc1)NC(=O)c1cnccn1)B(O)O [Bortezomib, bortezomib]",IC50 Ratio,U266B1; [21],0.05
same,CI,U266B1; Reference Example Compound 55:other compound 1:0.02,0.56
same,CI,U266B1; [23],0.51
same,Comprehensive Evaluation,U266B1; [22],Synergism (0.3-0.7)
same,BWC15 (%) Mean ± SD,[2],1.3 ± 3.2%
same,RTV15 Mean ± SD,[2],6.9 ± 3.2
same,T/C15 (%),[2],66%
CN[C@@H](C)C(=O)N[C@H](C(=O)N1CCC[C@H]1C(=O)Nc1snnc1-c1ccccc1)C1CCCCC1 [GDC-0152],IC50 Ratio,[3]; [21],2122
same,CI,[3]; Reference Example Compound 55:other compound 1:90,0.45
same,CI,[3]; Reference Example Compound 55:other compound 1:270,0.62
same,Comprehensive Evaluation,[3]; [22],Synergism (0.3-0.7)
"C=CC(=O)N1CCC[C@@H](n2nc(-c3ccc(Oc4ccccc4)cc3)c3c(N)ncnc32)C1 [Ibrutinib, ibrutinib]",IC50 Ratio,[4]; [21],140
same,CI,[4]; Reference Example Compound 55:other compound 1:111,0.70
same,CI,[4]; Reference Example Compound 55:other compound 1:333,0.72
"CC(C)C[C@H](NC(=O)CNC(=O)c1cc(Cl)ccc1Cl)B(O)O [Ixazomib, ixazomib]",IC50 Ratio,HL-60; [21],19
same,CI,HL-60; [24],0.82
same,CI,HL-60; [25],0.94
same,Comprehensive Evaluation,HL-60; [22],Additive (0.9-1.10)
O=C(/C=C\n1cnc(-c2cc(C(F)(F)F)cc(C(F)(F)F)c2)n1)NNc1cnccn1 [KPT-330],IC50 Ratio,[5]; [21],21
same,CI,[5]; Reference Example Compound 55:other compound 1:11,0.69
same,CI,[5]; Reference Example Compound 55:other compound 1:33,0.75
same,Comprehensive Evaluation,[5]; [22],Moderate
"O=C(c1cc(Cc2n[nH]c(=O)c3ccccc23)ccc1F)N1CCN(C(=O)C2CC2)CC1 [Olaparib, olaparib]",IC50 Ratio,[6]; [21],21
same,CI,[6]; [24],0.61
same,CI,[6]; [25],0.69
same,Comprehensive Evaluation,[6]; [22],Synergism (0.3-0.7)
"Cc1[nH]c2ccccc2c1CCNCc1ccc(/C=C/C(=O)NO)cc1 [Panobinostat, panobinostat]",IC50 Ratio,[7]; [21],0.08
same,CI,[7]; [23],0.90
same,CI,[7]; Reference Example Compound 55:other compound 1:0.22,0.61
same,Comprehensive Evaluation,[7],Additive (0.9-1.10)
"Nc1ncnc2c1c(C#Cc1c(F)cccc1F)cn2[C@@H]1O[C@H](CNS(N)(=O)=O)[C@@H](O)[C@H]1O [Reference Example 1, 4-Amino-5-[2-(2,6-difluorophenyl)ethynyl]-7-[(2R,3R,4S,5R)-3,4-dihydroxy-5-[(sulfamoylamino)methyl]tetrahydrofuran-2-yl]pyrrolo[2,3-d]pyrimidine]",IC50,[8],≤ 0.003 µM
same,IC50,[9],6.2 nM
same,IC50,[10],16 nM
same,IC50,[11],730 nM
same,IC50,[12],22 nM
same,IC50,[13],460 nM
same,IC50,[14],650 nM
same,IC50,[15],> 10000 nM
same,IC50,[16],110 nM
same,IC50,[17],730 nM
same,IC50,[18],21 nM
same,IC50,[19],260 nM
"CN1CCOc2c1ccc(F)c2C#Cc1cn([C@@H]2C[C@H](CNS(N)(=O)=O)[C@@H](O)[C@H]2O)c2ncnc(N)c12 [Reference Example 122, 8-[2-[4-amino-7-[(1R,2S,3R,4R)-2,3-dihydroxy-4-[(sulfamoylamino)methyl]cyclopentyl]pyrrolo[2,3-d]pyrimidin-5-yl]ethynyl]-7-fluoro-4-methyl-2,3-dihydro-1,4-benzoxazine]",IC50,[9],8.8 nM
same,IC50,[10],18 nM
same,IC50,[11],890 nM
same,IC50,[12],22 nM
same,IC50,[13],76 nM
same,IC50,[14],510 nM
same,IC50,[15],130 nM
same,IC50,[16],270 nM
same,IC50,[17],1600 nM
same,IC50,[18],38 nM
same,IC50,[19],120 nM
"CSc1cccc(F)c1C#Cc1cn([C@@H]2C=C(CNS(N)(=O)=O)[C@@H](O)[C@H]2O)c2ncnc(N)c12 [Reference Example 130, 4-Amino-7-[(1R,4R,5S)-4,5-dihydroxy-3-[(sulfamoylamino)methyl]cyclopent-2-en-1-yl]-5-[2-(2-fluoro-6-methylsulfanyl-phenyl)ethynyl]pyrrolo[2,3-d]pyrimidine]",IC50,[9],3.2 nM
same,IC50,[10],12 nM
same,IC50,[11],210 nM
same,IC50,[12],6.4 nM
same,IC50,[13],32 nM
same,IC50,[14],460 nM
same,IC50,[15],170 nM
same,IC50,[16],24 nM
same,IC50,[17],160 nM
same,IC50,[18],25 nM
same,IC50,[19],130 nM
"O=C(CCCCCCC(=O)Nc1ccccc1)NO [Vorinostat, vorinostat]",Comprehensive Evaluation,[7],Additive (0.9-1.10)
COc1cccc2c1C(=O)c1c(O)c3c(c(O)c1C2=O)C[C@@](O)(C(=O)CO)C[C@@H]3O[C@H]1C[C@H](N)[C@H](O)[C@H](C)O1 [doxorubicin hydrochloride],RTV22 compared with the control group (Dunnett's test),"[20]; SU-CCS-1 in BALB/cAJcl-nu/nu mice, reference example compound 12.5 or 25 mg/kg/day iv day 1 and 8, doxorubicin hydrochloride 8 mg/kg/day iv day 1",significantly lower
same,BWC22 (%) Mean ± SD,[20]; [26],−0.3 ± 2.6%
same,RTV22 Mean ± SD,[20]; [26],6.6 ± 0.8
same,T/C22 (%),[20]; [26],74%
